Reference: ChEMBL document CHEMBL1134425, “alpha-Amino-beta-sulphone hydroxamates as potent MMP-13 inhibitors that spare MMP-1” (Bioorg Med Chem Lett, 2001)

Tests used:
[1] = target: Matrix metalloproteinase (1 and 13) (Homo sapiens) (UniProt P45452+P03956); test: Selectivity for Matrix metalloprotease-1 over Matrix metalloprotease-13; assay type: protein assay
[2] = target: Collagenase 3 (Homo sapiens, UniProt P45452); test: Inhibition of Matrix metalloprotease-13
[3] = target: T1, Interstitial collagenase (Homo sapiens, UniProt P03956); test: Inhibition of Matrix metalloprotease-1
T1 sequence (P03956 whole entry): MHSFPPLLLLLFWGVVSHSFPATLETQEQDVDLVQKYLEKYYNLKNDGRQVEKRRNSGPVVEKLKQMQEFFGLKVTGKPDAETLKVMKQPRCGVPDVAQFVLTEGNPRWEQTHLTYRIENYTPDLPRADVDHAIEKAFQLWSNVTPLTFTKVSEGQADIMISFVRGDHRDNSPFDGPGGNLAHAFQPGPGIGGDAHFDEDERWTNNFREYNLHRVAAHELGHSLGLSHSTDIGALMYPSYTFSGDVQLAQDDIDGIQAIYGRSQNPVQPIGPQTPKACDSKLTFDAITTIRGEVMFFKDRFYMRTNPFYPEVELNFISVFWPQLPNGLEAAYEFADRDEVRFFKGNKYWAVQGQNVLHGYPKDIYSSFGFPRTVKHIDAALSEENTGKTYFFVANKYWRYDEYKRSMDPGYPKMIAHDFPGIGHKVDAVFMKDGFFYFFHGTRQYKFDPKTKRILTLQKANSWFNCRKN

[4] = Maximum plasma concentration dosed orally in rats after 6 hours; assay type: ADME, organism-based; design: route oral; conditions: rat, po
[5] = Maximum plasma concentration dosed orally in rats; assay type: ADME, organism-based; design: route oral; conditions: rat, po

Row | Selectivity [1] | IC50 [2] [µM] | IC50 [3] [µM] | Cmax [4] [µg/mL] | Cmax [5] [µg/mL] | SMILES
1 | > 12000 |  |  |  |  | O=C(CNC(=O)OCc1ccccc1)NC(CS(=O)(=O)c1ccc(Sc2ccccc2)cc1)C(=O)NO (centres undefined)
2 | > 1700 |  |  |  |  | CC(=O)NC(CS(=O)(=O)c1ccc(Sc2ccccc2)cc1)C(=O)NO (centres undefined)
3 | 450 | 0.0002 | 0.09 | 0.06 | 2.45 | CC(=O)N(C)[C@H](CS(=O)(=O)c1ccc(Oc2ccccc2)cc1)C(=O)NO
4 | 17 |  |  |  |  | COc1ccc(S(=O)(=O)CC(N)C(=O)NO)cc1 (centres undefined)
5 | > 2500 | 0.004 | > 10 |  |  | CC(C)(C)OC(=O)N[C@H](CS(=O)(=O)c1ccc(Sc2ccccc2)cc1)C(=O)NO
6 | 700 | 0.0011 | 0.77 |  |  | CC(=O)NC(CS(=O)(=O)c1ccc(Oc2ccccc2)cc1)C(=O)NO (centres undefined)
7 | 1600 | 0.0003 | 0.5 |  | < 0.2 | CC(C)(C)OC(=O)N[C@H](CS(=O)(=O)c1ccc(Oc2ccccc2)cc1)C(=O)NO
8 | 870 | 0.0004 | 0.35 |  | < 0.2 | COc1cccc(OC)c1C(=O)N[C@H](CS(=O)(=O)c1ccc(Oc2ccccc2)cc1)C(=O)NO
9 | 3400 | 0.0029 | 10 |  |  | CC(=O)N[C@H](CS(=O)(=O)c1ccc(Sc2ccccc2)cc1)C(=O)NO
10 | 2400 |  |  |  |  | CN(Cc1ccccc1)[C@H](CS(=O)(=O)c1ccc(Oc2ccccc2)cc1)C(=O)NO
11 | 20 |  |  |  |  | COc1ccc(S(=O)(=O)CC(NC(C)=O)C(=O)NO)cc1 (centres undefined)
12 | 20000 | 0.0004 | 8 |  |  | O=C(N[C@H](CS(=O)(=O)c1ccc(Sc2ccccc2)cc1)C(=O)NO)OCc1ccccc1
13 | 1300 | 0.0011 | 1.4 |  |  | O=C(NC(CS(=O)(=O)c1ccc(Oc2ccccc2)cc1)C(=O)NO)OCc1ccccc1 (centres undefined)
14 | 420 |  |  |  |  | NC(CS(=O)(=O)c1ccc(Sc2ccccc2)cc1)C(=O)NO (centres undefined)
15 | > 40 |  |  |  |  | COc1ccc(S(=O)(=O)CC(NC(=O)CNC(=O)OCc2ccccc2)C(=O)NO)cc1 (centres undefined)
16 | 130 | 0.002 |  |  | 0.71 | CN(C(=O)Cc1ccncc1)[C@H](CS(=O)(=O)c1ccc(Oc2ccccc2)cc1)C(=O)NO
17 | > 2700 |  |  |  |  | O=C(NC(CS(=O)(=O)c1ccc(Sc2ccccc2)cc1)C(=O)NO)OCc1ccccc1 (centres undefined)
18 | 1100 | 0.0004 | 0.44 | 0.049 | 6.66 | CN[C@H](CS(=O)(=O)c1ccc(Oc2ccccc2)cc1)C(=O)NO
19 | 1100 | 0.0008 | 0.9 |  | < 0.2 | O=C(N[C@H](CS(=O)(=O)c1ccc(Oc2ccccc2)cc1)C(=O)NO)c1ccncc1
20 | 100 | 0.015 | 1.5 |  |  | COc1ccc(S(=O)(=O)CC(NC(=O)OC(C)(C)C)C(=O)NO)cc1 (centres undefined)
21 | 1500 |  |  |  |  | Cc1ccc(S(=O)(=O)NC(CS(=O)(=O)c2ccc(Sc3ccccc3)cc2)C(=O)NO)cc1 (centres undefined)
22 | 5300 |  |  |  |  | CN(C(=O)OC(C)(C)C)[C@H](CS(=O)(=O)c1ccc(Oc2ccccc2)cc1)C(=O)NO
23 | 670 |  |  |  |  | Cc1ccc(S(=O)(=O)NC(CS(=O)(=O)c2ccc(Oc3ccccc3)cc2)C(=O)NO)cc1 (centres undefined)
